Experiment: Comparison of fluorescent values at the same absorption wavelength of compound 2-1 and compound 2-2
Type: physicochemical
Description: In order to confirm an increase in fluorescent intensity by introducing triazine substituted with a hydroxyl group shown in the compound 3-3 as a linker, the following comparative experiment was conducted.
The compound 2-1 was dissolved in DMF at a concentration of 10 mg/ml and then 5 μl of the compound 2-1 was added to 5 ml of PBS at room temperature, and 5 μl of the compound 2-2 was added to 5 mL of PBS at the same concentration in the same manner. The absorption was measured by adding 2 mL of two samples by 1 mL of PBS and the fluorescence was measured even after diluting the compounds.
In FIGS. 1 and 2, the numerical values of ½ and ¼ indicate that the initial concentration was diluted.

## CC1(CCCCCC(=O)NCCCNc2nc(O)nc(NCCCCCC(=O)ON3C(=O)CCC3=O)n2)C(/C=C/C=C/C=C2/N(CCCS(=O)(=O)O)c3ccc(S(=O)(=O)O)cc3C2(C)C)=[N+](CCCS(=O)(=O)O)c2ccc(S(=O)(=O)[O-])cc21 (centres unmarked) [Compound 2-2]
Compared to compound 2-1, at a concentration representing the same absorption intensity, DMF stock 10 mg/ml diluted in PBS, room temperature
  increase in fluorescence intensity: ≥ 162%
Single dye form, in PBS, initial concentration and 1/2, 1/4 dilutions
  fluorescence intensity as compared to the compound 2-1: the higher the concentration, the higher the fluorescence intensity

Source: patent US20220229063A1, “FLUORESCENT COMPOUND WITH CYANURIC-HYDROXIDE AND PREPARATION METHOD THEREOF” (Bioacts Corporation, priority 2021, published 2022)
